Laboratory results reported in patent US6358522B1, “Pharmaceutical compositions containing lipase inhibitor” (Hoffmann-La Roche Inc., priority 1998, dated 2002).

Experiment: Anal leakage of oil in rats on high fat diet with diet-admixed orlistat
Format: in vivo
Text: Rats maintained on high fat diet were used as models. […] However, the amount of oil leakage could not easily be determined. Due to coprophagia and extensive grooming activity the rats distributed the oil to a large extent over their fur. Moreover, this stressful condition of unsuccessful grooming provoked considerable excitation of the animals. The area of greasy fur increased in proportion to the amount of unabsorbed fat and was reduced by dietary admixture of selected examples of the above defined food additives. However, for reasons of animal care for comparative evaluation of the additives a surrogate parameter was used to assess effects on oil leakage. Following a meal containing orlistat, unabsorbed fat is temporarily stored in the caecum of the rat prior to excretion. The fat is partly present as floating liquid oil, partly associated with unabsorbable solids.

CCCCCCCCCCC[C@@H](C[C@@H]1OC(=O)[C@H]1CCCCCC)OC(=O)[C@H](CC(C)C)NC=O [orlistat, N-formyl-L-leucine ester with (3S,4S)-3-hexyl-4-[(2S)-2-hydroxy-tridecyl]-2-oxetanone]
Anal leakage of oil: provoked anal leakage of liquid oil
